These are literature values, as cited in patent US20060099667A1, “Method for performing restrained dynamics docking of one or multiple substrates on multi-specific enzymes” (priority 2002, published 2006).

Targets include CYP3A7 (Homo sapiens, UniProt P24462); CYP3A4 (Homo sapiens, UniProt P08684); CYP3A5 (Homo sapiens, UniProt P20815).

Entries after “also recorded” stand apart in the source; their conditions may differ. Structures can show the parent of a compound that is named as a salt.

Chain of CYP3A4 (P08684 whole entry): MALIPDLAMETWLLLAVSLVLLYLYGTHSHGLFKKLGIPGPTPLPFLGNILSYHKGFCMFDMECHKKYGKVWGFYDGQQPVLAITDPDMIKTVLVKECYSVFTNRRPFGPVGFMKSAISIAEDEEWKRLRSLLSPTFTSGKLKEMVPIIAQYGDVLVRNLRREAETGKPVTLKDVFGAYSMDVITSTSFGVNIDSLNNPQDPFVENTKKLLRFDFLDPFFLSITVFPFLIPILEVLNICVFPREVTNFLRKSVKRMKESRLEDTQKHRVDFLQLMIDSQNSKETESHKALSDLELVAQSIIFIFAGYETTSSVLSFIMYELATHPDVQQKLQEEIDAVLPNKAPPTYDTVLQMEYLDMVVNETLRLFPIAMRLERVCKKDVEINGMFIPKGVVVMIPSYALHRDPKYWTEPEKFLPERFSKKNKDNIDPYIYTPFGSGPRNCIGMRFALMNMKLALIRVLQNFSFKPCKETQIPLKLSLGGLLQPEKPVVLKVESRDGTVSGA
Chain of CYP3A7 (P24462 whole entry): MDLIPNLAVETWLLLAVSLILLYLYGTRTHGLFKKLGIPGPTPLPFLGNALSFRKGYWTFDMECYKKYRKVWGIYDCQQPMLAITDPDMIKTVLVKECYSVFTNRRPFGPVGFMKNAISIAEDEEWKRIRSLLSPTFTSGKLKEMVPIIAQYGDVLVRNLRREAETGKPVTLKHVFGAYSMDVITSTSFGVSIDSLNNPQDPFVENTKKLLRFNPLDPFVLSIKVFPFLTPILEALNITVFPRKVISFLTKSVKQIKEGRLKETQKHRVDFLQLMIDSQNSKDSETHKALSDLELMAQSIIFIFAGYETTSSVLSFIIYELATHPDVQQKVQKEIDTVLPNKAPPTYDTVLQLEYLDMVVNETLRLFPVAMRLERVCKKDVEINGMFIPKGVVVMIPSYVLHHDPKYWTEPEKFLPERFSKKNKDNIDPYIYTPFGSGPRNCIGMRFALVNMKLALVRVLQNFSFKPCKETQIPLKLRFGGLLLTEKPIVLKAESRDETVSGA
Chain of CYP3A5 (P20815 whole entry): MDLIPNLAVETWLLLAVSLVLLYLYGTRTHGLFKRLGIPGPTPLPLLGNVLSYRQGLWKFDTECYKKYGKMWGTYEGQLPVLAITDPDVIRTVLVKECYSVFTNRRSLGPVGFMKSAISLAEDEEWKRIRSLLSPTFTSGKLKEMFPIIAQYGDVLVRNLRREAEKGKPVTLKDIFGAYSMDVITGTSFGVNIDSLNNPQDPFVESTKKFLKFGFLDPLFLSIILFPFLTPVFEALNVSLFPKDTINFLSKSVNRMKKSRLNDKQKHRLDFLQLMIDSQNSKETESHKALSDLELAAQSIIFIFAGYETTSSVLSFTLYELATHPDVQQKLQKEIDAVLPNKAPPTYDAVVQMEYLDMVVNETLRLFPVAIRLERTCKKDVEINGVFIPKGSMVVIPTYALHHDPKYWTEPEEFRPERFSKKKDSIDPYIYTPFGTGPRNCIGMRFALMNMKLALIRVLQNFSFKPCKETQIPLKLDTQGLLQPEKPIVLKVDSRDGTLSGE

Turning to `C[C@]12CC[C@H](OS(=O)(=O)O)CC1=CC[C@@H]1[C@@H]2CC[C@]2(C)C(=O)CC[C@@H]12` [DHEA 3 sulfate conjugate], the position of oxidation result at CYP3A7 is given as “exclusively on the 16α position”.

With `C[C@]12CC[C@H]3[C@@H](CCC4=CC(=O)CC[C@@]43C)[C@@H]1CC[C@@H]2O` [testosterone], the position of oxidation result on CYP3A4 is “exclusively at the 6β position; also recorded: almost exclusively in the 6β position”; on CYP3A7, “both 6β and 16α position”; at CYP3A5, “almost exclusively in the 6β position”.
